Data from patent US12398141B2 (SHANGHAI SYNERGY PHARMACEUTICAL SCIENCES CO., LTD, priority 2019, dated 2025).

Legend:
Format in all cases: biochemical
JAK1 = JAK1 (Homo sapiens (Human), UniProt P23458); assay: JAK1 LANCE Ultra kinase assay; details: for IC50: 38 uM ATP; for JAK2/JAK1: ratio of IC50 JAK2 to IC50 JAK1
Method: Inhibition test on activity of JAK kinase in vitro was carried out by the following methods.
JAK1 LANCE® Ultra assay, JAK2 LANCE® Ultra assay and JAK3 LANCE® Ultra assay were used to carry out the test separately, and kits of the above assays were supplied by PerkinElmer. […]
JAK1, JAK2 and JAK3 kinase, ATP and substrates were dissolved and diluted with buffers.
A test liquid was 2 nM Eu-W1024 anti-phosphotyrosine (PerkinElmer, AD0069). A stop buffer was 10 mM edetic acid (Intech, 1842C505).
2.5 μl of an 8-fold solution of the compound and 5 μl of a 4-fold solution of JAK1 or JAK2 or JAK3 kinase were added into a 384-well plate, respectively, and reacted for 10 minutes at room temperature. 2.5 μl of an 8-fold solution of ULight™-JAK-1 peptide/ATP was added and reacted for 90 minutes at room temperature. Finally, 5 μl of 4-fold edetic acid stop buffer and 5 μl of 4-fold test liquid of Eu-W1024 anti-phosphotyrosine were added and incubated for 60 minutes.
According to the formula: percentage of inhibition rate=(maximum value−transform value)/(maximum value−minimum value)×100, inhibition rate of each compound at various concentrations was calculated. The maximum value was the reference value of dimethyl sulfoxide added into the well plate, the minimum value was the blank value, and the transform value is the value obtained by the well of each compound. The IC50 values of the corresponding compounds were then obtained by fitting by using the XLFit fitting tool in excel.

JAK3 = JAK3 (Homo sapiens (Human), UniProt P52333); assay: JAK3 LANCE Ultra kinase assay; details: 4 uM ATP
JAK2 = JAK2 (Homo sapiens (Human), UniProt O60674); assay: JAK2 LANCE Ultra kinase assay; details: 12 uM ATP
JAK2, sequence (O60674 whole entry): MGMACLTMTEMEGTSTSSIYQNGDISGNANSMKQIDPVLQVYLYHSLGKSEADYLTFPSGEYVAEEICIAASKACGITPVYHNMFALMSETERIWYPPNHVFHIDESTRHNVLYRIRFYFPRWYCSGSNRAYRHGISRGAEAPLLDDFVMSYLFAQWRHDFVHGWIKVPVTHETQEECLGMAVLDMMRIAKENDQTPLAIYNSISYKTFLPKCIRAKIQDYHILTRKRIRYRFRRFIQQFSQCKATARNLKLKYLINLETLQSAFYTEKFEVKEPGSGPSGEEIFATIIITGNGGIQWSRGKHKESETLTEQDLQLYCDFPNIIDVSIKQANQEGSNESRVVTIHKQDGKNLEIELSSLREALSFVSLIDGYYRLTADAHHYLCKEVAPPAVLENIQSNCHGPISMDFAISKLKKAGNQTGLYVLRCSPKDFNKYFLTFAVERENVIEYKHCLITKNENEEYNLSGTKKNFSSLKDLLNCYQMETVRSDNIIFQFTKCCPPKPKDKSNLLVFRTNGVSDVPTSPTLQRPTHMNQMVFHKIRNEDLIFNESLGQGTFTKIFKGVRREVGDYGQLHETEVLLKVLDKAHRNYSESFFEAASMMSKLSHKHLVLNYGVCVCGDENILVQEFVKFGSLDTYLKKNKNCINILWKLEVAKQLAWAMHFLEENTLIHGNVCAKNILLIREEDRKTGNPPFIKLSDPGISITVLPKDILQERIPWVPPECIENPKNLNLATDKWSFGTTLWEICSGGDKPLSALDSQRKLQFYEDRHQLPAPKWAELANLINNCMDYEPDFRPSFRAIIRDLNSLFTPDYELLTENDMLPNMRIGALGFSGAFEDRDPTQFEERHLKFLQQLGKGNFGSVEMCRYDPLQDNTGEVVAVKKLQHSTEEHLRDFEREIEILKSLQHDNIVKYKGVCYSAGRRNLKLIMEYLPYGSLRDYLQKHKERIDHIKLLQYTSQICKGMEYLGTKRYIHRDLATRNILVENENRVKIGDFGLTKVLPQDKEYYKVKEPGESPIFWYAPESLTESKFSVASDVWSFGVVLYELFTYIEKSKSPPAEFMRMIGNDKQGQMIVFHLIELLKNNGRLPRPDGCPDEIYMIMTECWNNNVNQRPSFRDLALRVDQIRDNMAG

JAK3, sequence (P52333 whole entry): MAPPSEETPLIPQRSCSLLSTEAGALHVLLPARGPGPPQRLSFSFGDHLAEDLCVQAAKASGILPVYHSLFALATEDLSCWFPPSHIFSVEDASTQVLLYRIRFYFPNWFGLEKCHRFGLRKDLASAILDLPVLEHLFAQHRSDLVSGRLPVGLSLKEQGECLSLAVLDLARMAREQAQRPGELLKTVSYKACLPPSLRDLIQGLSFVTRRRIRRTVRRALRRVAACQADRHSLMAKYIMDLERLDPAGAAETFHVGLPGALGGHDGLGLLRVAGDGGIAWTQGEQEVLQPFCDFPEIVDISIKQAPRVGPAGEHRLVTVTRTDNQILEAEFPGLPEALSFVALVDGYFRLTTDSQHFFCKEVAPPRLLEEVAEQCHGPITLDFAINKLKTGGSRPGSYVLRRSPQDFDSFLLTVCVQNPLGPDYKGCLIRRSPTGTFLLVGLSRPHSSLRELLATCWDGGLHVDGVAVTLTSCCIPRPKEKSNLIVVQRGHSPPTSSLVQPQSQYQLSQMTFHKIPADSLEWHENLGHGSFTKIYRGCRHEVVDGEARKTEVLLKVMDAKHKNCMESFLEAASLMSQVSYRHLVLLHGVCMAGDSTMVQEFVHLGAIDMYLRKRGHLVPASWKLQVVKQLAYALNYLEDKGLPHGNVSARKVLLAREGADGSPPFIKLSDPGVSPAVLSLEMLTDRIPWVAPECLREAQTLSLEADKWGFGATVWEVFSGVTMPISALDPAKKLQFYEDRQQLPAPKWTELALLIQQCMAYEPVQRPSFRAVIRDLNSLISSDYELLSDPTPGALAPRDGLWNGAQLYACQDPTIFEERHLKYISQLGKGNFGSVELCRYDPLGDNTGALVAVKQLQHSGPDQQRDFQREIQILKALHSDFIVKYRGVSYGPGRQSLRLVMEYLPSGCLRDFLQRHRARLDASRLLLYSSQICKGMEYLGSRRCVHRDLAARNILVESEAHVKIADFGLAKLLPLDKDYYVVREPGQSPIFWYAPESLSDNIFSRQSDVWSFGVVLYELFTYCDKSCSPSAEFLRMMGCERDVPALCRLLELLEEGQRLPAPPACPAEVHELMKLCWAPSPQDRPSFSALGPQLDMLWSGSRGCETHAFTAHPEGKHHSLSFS
JAK1, sequence (P23458 whole entry): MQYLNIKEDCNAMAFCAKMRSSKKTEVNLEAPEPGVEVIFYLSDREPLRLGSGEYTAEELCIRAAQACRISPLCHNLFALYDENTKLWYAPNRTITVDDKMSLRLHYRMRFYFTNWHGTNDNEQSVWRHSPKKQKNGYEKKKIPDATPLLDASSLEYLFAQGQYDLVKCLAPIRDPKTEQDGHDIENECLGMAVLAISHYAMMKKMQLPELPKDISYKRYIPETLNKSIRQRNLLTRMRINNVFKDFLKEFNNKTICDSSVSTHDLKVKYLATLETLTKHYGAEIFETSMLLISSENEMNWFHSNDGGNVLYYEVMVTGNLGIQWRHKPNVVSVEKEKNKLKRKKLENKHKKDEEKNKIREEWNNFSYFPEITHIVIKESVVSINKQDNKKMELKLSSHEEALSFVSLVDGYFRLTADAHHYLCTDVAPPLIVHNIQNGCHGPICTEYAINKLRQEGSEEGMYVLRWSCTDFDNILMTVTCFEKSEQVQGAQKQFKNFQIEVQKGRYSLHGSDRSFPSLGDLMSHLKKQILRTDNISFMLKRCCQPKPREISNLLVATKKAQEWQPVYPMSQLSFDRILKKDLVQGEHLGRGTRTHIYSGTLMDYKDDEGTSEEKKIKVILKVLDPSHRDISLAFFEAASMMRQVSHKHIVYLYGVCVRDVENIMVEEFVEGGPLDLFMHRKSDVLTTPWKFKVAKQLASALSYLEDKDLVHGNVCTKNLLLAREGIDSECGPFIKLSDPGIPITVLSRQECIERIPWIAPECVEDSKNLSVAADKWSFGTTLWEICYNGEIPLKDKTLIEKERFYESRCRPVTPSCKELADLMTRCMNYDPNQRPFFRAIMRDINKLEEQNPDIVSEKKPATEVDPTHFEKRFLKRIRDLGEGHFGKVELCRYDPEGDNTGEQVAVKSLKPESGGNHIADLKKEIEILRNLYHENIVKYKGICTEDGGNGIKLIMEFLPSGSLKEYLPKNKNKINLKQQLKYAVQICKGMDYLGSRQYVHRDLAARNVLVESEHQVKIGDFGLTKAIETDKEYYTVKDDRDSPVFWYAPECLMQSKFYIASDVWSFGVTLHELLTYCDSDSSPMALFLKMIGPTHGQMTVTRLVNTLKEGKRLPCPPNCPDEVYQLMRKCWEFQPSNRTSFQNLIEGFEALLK

Compound | IC50 (JAK1) [nM] | IC50 (JAK3) [nM] | IC50 (JAK2) [nM] | JAK2/JAK1 (JAK1)
COCC1CCN(S(=O)(=O)C[C@H]2CC[C@H](N(C)c3c(C#N)cnc4[nH]ccc34)CC2)C1 (stereo partly drawn) [Compound H68, 4-((trans-4-(((3-(methoxymethyl)pyrrolidin-1-yl)sulfonyl)methyl)cyclohexyl)(methyl)amino)-1H-pyrrolo[2,3-b]pyridin-5-carbonitrile] | 6.87 | 386 | 122 | 17.76
COCCOc1nsc(NC(=O)N2C[C@H]3C[C@H](N(C)c4c(C#N)cnc5[nH]ccc45)C[C@H]3C2)n1 [Compound H51, (3aR,5S,6aS)-5-((5-cyano-1H-pyrrolo[2,3-b]pyridin-4-yl)(methyl)amino)-N-(3-(2-methoxyethoxy)-1,2,4-thiadiazole-5-yl)hexahydrocyclopenta[c]pyrrole-2(1H)-carboxamide] | 6.89 | 101 | 30.9 | 4.49
N#Cc1cnc2[nH]ccc2c1N[C@H]1C[C@@H](NS(=O)(=O)c2ccc(C(F)(F)F)cc2)C1 [Compound H17, (cis)-4-{[3-(4-trifluoromethylbenzenesulfonamido)-cyclobutyl-1-yl]-amino}-1H-pyrrolo[2,3-b]pyridin-5-carbonitrile] | 5 | 27 | 13 | 2.60
CCC1CN(C(=O)CC#N)CC1Nc1c(C#N)cnc2[nH]ccc12 (stereo not shown) [Compound H78, 4-((4-ethyl-1-(2-cyanoacetyl)pyrrolidin-3-yl)amino)-1H-pyrrolo[2,3-b]pyridin-5-carbonitrile] | 6 | 42 | 16 | 2.67
CC[C@@H]1CC(NS(=O)(=O)c2cccc(C(F)(F)F)c2)C[C@@H]1Nc1c(C#N)cnc2[nH]ccc12 (stereo partly shown) [Compound H60, N-(3-((5-cyano-1H-pyrrolo[2,3-b]pyridin-4-yl)amino)-4-ethylcyclopentyl)-3-(trifluoromethyl)benzsulfamide] | 5.6 | 153 | 35 | 6.25
N#Cc1cnc2[nH]ccc2c1N[C@H]1C[C@@H]2CN(C(=O)Nc3nc(C4CC4)ns3)C[C@@H]2C1 [Compound H49, (3aR,5s,6aS)-5-((5-cyano-1H-pyrrolo[2,3-b]pyridin-4-yl)amino)-N-(3-cyclopropyl-1,2,4-thiadiazole-5-yl)hexahydrocyclopentadiene[c]pyrrole-2(1H)-carboxamide] | 5.43 | 178 | 15 | 2.76
CCC1CN(C(=O)NCC(F)F)CC1Nc1c(C#N)cnc2[nH]ccc12 (stereo not shown) [Compound H87, 3-((5-cyano-1H-pyrrolo[2,3-b]pyridin-4-yl)amino)-N-(2,2-difluoroethyl)-4-ethylpyrrolidin-1-carboxamide] | 5.1 | 73 | 45 | 8.82
C[C@H](O)C(=O)N1C[C@H]2C[C@H](N(C)c3c(C#N)cnc4[nH]ccc34)C[C@H]2C1 [Compound H23, (3aR,5S,6aS)-4-{[2-((2S)-2-hydroxypropionyl)-hexahydrocyclopenta[c]pyrrole-5-yl]-methyl-amino}-1H-pyrrolo[2,3-b]pyridin-5-carbonitrile] | 7.16 | 533 | 135 | 18.85

Next, values leading:

IC50 (JAK1) [nM] | IC50 (JAK3) [nM] | IC50 (JAK2) [nM] | JAK2/JAK1 (JAK1) | Compound
4.98 | 143 | 36 | – | CN(c1c(C#N)cnc2[nH]ccc12)[C@H]1C[C@@H](NS(=O)(=O)CCC(F)(F)F)C1 [Compound H10, 4-{[3-(3,3,3-trifluoropropanesulfonamido)-cyclobutyl-1-yl]-methyl-amino}-1H-pyrrolo[2,3-b]pyridin-5-carbonitrile]
5 | 27 | 13 | 2.60 | CN(c1c(C#N)cnc2[nH]ccc12)[C@H]1C[C@@H]2CN(C(=O)Nc3nc(C4CC4)no3)C[C@@H]2C1 [Compound H32, (3aR,5s,6aS)-4-({2-[(3-cyclopropyl-1,2,4-oxadiazole-5-yl)carbamoyl]-hexahydrocyclopenta[c]pyrrole-5-yl}-methyl-amino)-1H-pyrrolo[2,3-b]pyridin-5-carbonitrile]
2.96 | 58.9 | 21 | 7.09 | N#Cc1cnc2[nH]ccc2c1N[C@H]1C[C@@H](NS(=O)(=O)c2cccc(C(F)(F)F)c2)C1 [Compound H13, (cis)-4-{[3-(3-(trifluoromethyl)benzenesulfonamido)-cyclobutyl-1-yl]-amino}-1H-pyrrolo[2,3-b]pyridin-5-carbonitrile]
0.76 | 68 | 5.71 | 7.51 | N#Cc1cn2c(n1)CC(Nc1c(C#N)cnc3[nH]ccc13)CC2 (stereo not shown) [Compound H90, 7-((5-cyano-1H-pyrrolo[2,3-b]pyridin-4-yl)amino)-5,6,7,8-tetrahydroimidazo[1,2-a]pyridin-2-carbonitrile]
0.96 | 59 | 6.5 | 6.77 | CC[C@@H]1CN(C(=O)NCC(C)C)C[C@@H]1Nc1c(C#N)cnc2[nH]ccc12 (relative stereo) [Compound H79, (cis)-3-((5-cyano-1H-pyrrolo[2,3-b]pyridin-4-yl)amino)-4-ethyl-N-isobutylpyrrolidin-1-carboxamide]
4.9 | 157 | 30 | 6.12 | CC(C)[C@@H]1CN(C(=O)NCC(F)(F)F)C[C@@H]1Nc1c(C#N)cnc2[nH]ccc12 (relative stereo) [Compound H73, (cis)-3-((5-cyano-1H-pyrrolo[2,3-b]pyridin-4-yl)amino)-4-isopropyl-N-(2,2,2-trifluoroethyl)pyrrolidin-1-carboxamide]
0.92 | 96 | 18.7 | 20.33 | O=C(NCC(F)(F)F)N1C[C@H](Nc2c(C(F)(F)F)cnc3[nH]ccc23)[C@H](C2CC2)C1 (relative stereo) [Compound H91, (cis)-3-cyclopropyl-N-(2,2,2-trifluoroethyl)-4-((5-(trifluoromethyl)-1H-pyrrolo[2,3-b]pyridin-4-yl)amino)pyrrolidin-1-carboxamide]
1.13 | 68 | 9.8 | 8.67 | CCCS(=O)(=O)N[C@H]1C[C@@H](Nc2c(C#N)cnc3[nH]ccc23)C1 [Compound H46, (cis)-4-{[3-(propanesulfonamido)-cyclobutyl-1-yl]-amino}-1H-pyrrolo [2,3-b]pyridin-5-carbonitrile]
0.89 | 48 | 6.4 | 7.19 | COCc1nsc(NC(=O)N2C[C@H]3C[C@H](Nc4c(C#N)cnc5[nH]ccc45)C[C@H]3C2)n1 [Compound H57]
